System: B16-F10 murine melanoma cells
Experiment: Experimental metastasis assay (lung metastases after i.v. injection of cancer cells)
Format: in vivo, female nude (CD-1)BR mice
Conditions: for reduction in the number of lung metastases with respect to untreated controls: DOX 5 mg/kg i.p. +24 h, NAC 2 g/kg p.o. daily
Procedure: DOX was used in the form of commercial injectable product, containing 10 mg of drug per vial (Adriblastina®, Farmitalia - Carlo Erba, Milano, Italia), to be dissolved in distilled water when injected. In the experiments wherein the oral administration was provided, NAC was used in the form of commercial product containing 200 mg of NAC per dosage (Fluimucil®, Zambon Italia, Vicenza), directly dissolved in the drinking water of mice. In the experiments wherein the parenteral (i.p. or i.v.) administration of NAC was foreseen, a 98% pure laboratory reagent (Sigma Chemical Co., St. Louis, MO, U.S.A.) was used, dissolved in a phosphate buffer (PBS), pH 7.4, and furtherly brought to neutrality with NaOH 0.1 N ("spontaneous" metastasis assays) or in NaCl 0.15 M, taking the solution to pH 7.0 (experimental metastasis assays).
A total of 385 adult mice was used (Charles River, Calco, Como, Italia) of which 196 female nude (CD-1)BR mice, aged 7 weeks, average weight of 25 g and 189 female C57BL/6 mice aged 6-8 weeks, average weight of 20 g, used in the experimental metastasis assays and in those of "spontaneous" metastases respectively. The (CD-1)BR mice were housed in sterile cages with filtering cover, in a number of 3 animals per cage, at a room temperature of 26-28°C, with a relative humidity of 55%, a ventilation accounting for 12-15 air/h renewals and a 12 hours day/night cycle; the C57BL/6 mice were stabulated in a number of 5 animals per cage, at a temperature of 25-27°C, with a relative humidity of 50% and a 12 hours day/night cycle. The (CD-1)BR mice received a special diet sterilized under vacuum (Mucedola S.r.L, Settimo Milanese, Milano, Italia) and sterilized drinking water; the C57BL/6 mice received a standard rodent diet (MIL Topi e Ratti, Morini, S. Polo d'Enza, Reggio Emilia, Italia) and drinking water ad libitum throughout the duration of the experiments. Within the experiments wherein the sacrifice of mice was foreseen at a scheduled time, killing was carried out by means of ethyl ether anaesthesia and subsequent cervical dislocation. The stabulation and all the animal treatments were carried out in accordance with the national and Community guidelines (D.L. 27.01.1992 N. 116; 86/609/EEC Directive).
In this kind of assay cancer cells were injected in the lateral tail vein, in order to avoid the formation of primary tumors and directly provide the spread of metastases in the lungs. B16-F10 murine melanoma cells were used, resuspended in serum-free Eagle's MEM medium, and injected i.v. in a volume of 100 µl (5 x 10^4 cells/mouse). As reported in Table 1, wherein also the number of mice included in each experimental group is indicated, 4 groups were always involved in each experiment, namely a control group (either untreated mice or treated with NaCl 0.15M), a group of mice treated with DOX only, a group of mice treated with NAC only and a group of mice treated with the two combined drugs.
In particular, in experiment #1 DOX was injected in a single dose (5 mg/kg body weight) by i.p. route 24 hours after injection of cancer cells, whereas NAC was administered every day with drinking water, at a calculated dose of 2 g/kg body weight, starting 3 days before injection of cancer cells and continuing throughout the duration of the experiment.
In experiment #2 DOX was injected in a single dose (10 mg/kg body weight) by i.v. route 3 days after injection of cancer cells, whereas NAC was administered daily by i.p. route (1 g/kg body weight), starting 8 hours before injection of cancer cells and continuing for 8 days.
In experiment #3 both DOX and NAC were injected by i.v. route 24 hours after injection of cancer cells, […]; in the combined treatment therefore the two drugs were injected after being mixed into the same syringe.
In experiment #4, wherein the control and DOX groups were the same as experiment #3, NAC was injected by i.v. route together with cancer cells, dissolved in the culture medium at a concentration of 10 mM. […]

[1] = experiment #1, DOX 5 mg/kg i.p. +24h, NAC 2 g/kg p.o. -3/+25 days, DOX+NAC same doses, killed at 25 days
[2] = experiment #1, combined same doses
[3] = experiment #2, DOX 10 mg/kg i.v. +3 days, NAC 1 g/kg i.p. -8 h/+8 days, DOX+NAC same doses, killed at 29 days
[4] = experiment #2, DOX 10 mg/kg i.v. +3 days, NAC 1 g/kg i.p. daily -8 h/+8 days, combined same doses
[5] = experiment #3, DOX 1 mg/kg i.v. +24 h, NAC 6.4 mg/kg i.v. +24 h, combined in the same injection
[6] = experiment #3, DOX 1 mg/kg i.v. +24 h, NAC 6,4 mg/kg i.v. +24 h, DOX+NAC mixed in the same syringe, killed at 27 days
[7] = experiment #4, DOX 1 mg/kg i.v. +24 h, NAC 10 mM in cancer cells culture medium, combined same doses
[8] = experiment #4, DOX 1 mg/kg i.v. +24 h, NAC 10 mM in culture medium of the injected cancer cells, DOX+NAC same doses, killed at 27 days
[9] = experiment #2, NAC 1 g/kg i.p. daily -8 h/+8 days

Structure (SMILES)	Lung metastases No. (mean ± ES) [1]	Mice with metastases (No.) 0 [1]	Mice with metastases (No.) 1-10 [1]	Mice with metastases (No.) 11-50 [1]	Mice with metastases (No.) ≥51 [1]	reduction in the number of lung metastases with respect to untreated controls [2]	Lung metastases No. (mean ± ES) [3]	Mice with metastases (No.) 0 [3]	Mice with metastases (No.) 1-10 [3]	Mice with metastases (No.) 11-50 [3]	Mice with metastases (No.) ≥51 [3]	reduction in the number of lung metastases with respect to controls [4]	reduction in the number of lung metastases with respect to controls [5]	Lung metastases No. (mean ± ES) [6]	Mice with metastases (No.) 0 [6]	Mice with metastases (No.) 1-10 [6]	Mice with metastases (No.) 11-50 [6]	Mice with metastases (No.) ≥51 [6]	reduction in the number of lung metastases with respect to controls [7]	Lung metastases No. (mean ± ES) [8]	further results
COc1cccc2c1C(=O)c1c(O)c3c(c(O)c1C2=O)C[C@@](O)(C(=O)CO)C[C@@H]3O[C@H]1C[C@H](N)[C@H](O)[C@H](C)O1 [DOX, Doxorubicin]	13.1 ± 11.6 No.	2 No.	4 No.	5 No.	0 No.	4.1 fold	0.7 ± 0.3 No.	10 No.	5 No.	0 No.	0 No.	17.4 fold	1.3 fold	29.2 ± 13.7 No.	3 No.	5 No.	0 No.	3 No.	1.3 fold	29.2 ± 13.7 No.	frequency of mice affected by metastases (experiment #2, DOX 10 mg/kg i.v. +3 days, NAC 1 g/kg i.p. daily, controls 66.7%): 33.3%; Mice with metastases (No.) 0 [8]: 3 No.; Mice with metastases (No.) 1-10 [8]: 5 No.; Mice with metastases (No.) 11-50 [8]: 0 No.; Mice with metastases (No.) ≥51 [8]: 3 No.; modulating the induction of lung metastases (effect in words) (experiments #3 and #4, DOX 1 mg/kg i.v. +24 h): almost ineffective at all
CC(=O)N[C@@H](CS)C(=O)O [NAC, N-acetyl-cysteine]	42.1 ± 15.8 No.	0 No.	3 No.	7 No.	2 No.	1.3 fold	25.1 ± 10.2 No.	5 No.	4 No.	3 No.	3 No.	0.5 fold	2.8 fold	13.1 ± 8.9 No.	5 No.	2 No.	3 No.	1 No.	14.7 fold	2.5 ± 0.7 No.	frequency of animals with metastases (effect in words) [9]: did not affect; multiplicity of lung metastases (effect in words) [9]: even increased their multiplicity, but not to a significant extent; Mice with metastases (No.) 0 [8]: 4 No.; Mice with metastases (No.) 1-10 [8]: 7 No.; Mice with metastases (No.) 11-50 [8]: 0 No.; Mice with metastases (No.) ≥51 [8]: 0 No.

Reference: patent publication EP0885006B1, “PHARMACEUTICAL COMPOSITION ENABLING TO INHIBIT CANCER METASTASIS FORMATION CONTAINING N-ACETYL-CYSTEINE AND DOXORUBICIN” (ZAMBON GROUP S.p.A., priority 1996, dated 1997)
